US11952371B1, “2-[(1,3-benzoxazol-2-yl)imino]-5,5-diphenylimidazolidin-4-one as an antimicrobial compound” (KING FAISAL UNIVERSITY, priority 2023, dated 2024)

Assays:
[1] = tested on: Aspergillus flavus; assay: Agar plate disc-diffusion, antifungal activity; type: cell-based
Experimental: (§1) The agar plate disc-diffusion method was applied. […] The discs were then placed onto the surface of agar plates (nutrient agar for bacteria and Sabouraud's dextrose agar for fungi) seeded with the test organism. Each plate contained 15 mL of the agar medium, previously seeded with 0.2 mL of the broth culture of each organism pregrown for 18 hours. The plates were incubated at 37° C. for 48 hours, and 72 hours for fungi. The inhibition zones were measured in millimeter. Discs impregnated with DMSO were used as a control, and its inhibition zone was subtracted from the tested compound actual inhibition zone.
(§2) The results of the antimicrobial testing can be observed in Tables 1 and 2, below, with ciprofloxacin serving as a reference.

[2] = tested on: Chrysosporium keratinophilum; assay: Agar plate disc-diffusion, antifungal activity; type: cell-based
Experimental: as §1, §2

[3] = tested on: Bacillus cereus; assay: Agar plate disc-diffusion, antibacterial activity; type: cell-based
Experimental: as §1, §2

[4] = tested on: Escherichia coli; assay: Agar plate disc-diffusion, antibacterial activity; type: cell-based
Experimental: as §1, §2

[5] = tested on: Pseudomonas aeruginosa; assay: Agar plate disc-diffusion, antibacterial activity; type: cell-based
Experimental: as §1, §2

[6] = tested on: Staphylococcus aureus; assay: Agar plate disc-diffusion, antibacterial activity; type: cell-based
Experimental: as §1, §2

[7] = A = concentration of comp. = 10,000 μL
[8] = B = concentration of comp. = 30,000 μL
[9] = C = concentration of comp. = 50,000 μL

melting point [°C] | Compound | inhibition zone [1, 7] [millimeter] | inhibition zone [1, 8] [millimeter] | inhibition zone [1, 9] [millimeter] | inhibition zone [2, 7] [millimeter] | inhibition zone [2, 8] [millimeter] | inhibition zone [2, 9] [millimeter] | inhibition zone [3, 7] [millimeter] | inhibition zone [3, 8] [millimeter] | inhibition zone [3, 9] [millimeter] | inhibition zone [4, 7] [millimeter] | inhibition zone [4, 8] [millimeter] | inhibition zone [4, 9] [millimeter] | inhibition zone [5, 7] [millimeter] | inhibition zone [5, 8] [millimeter] | inhibition zone [5, 9] [millimeter] | inhibition zone [6, 7] [millimeter] | inhibition zone [6, 8] [millimeter] | inhibition zone [6, 9] [millimeter]
– | O=C(O)c1cn(C2CC2)c2cc(N3CCNCC3)c(F)cc2c1=O [Cip., ciprofloxacin, reference compound] | 29 | 30 | 42 | 29 | 30 | 53 | 29 | 31 | 42 | 30 | 39 | 60 | 29 | 30 | 53 | 42 | 44 | 53
234 to 236 | O=C1N/C(=N/c2nc3ccccc3o2)NC1(c1ccccc1)c1ccccc1 [compound 3, 2-[(1,3-benzoxazol-2-yl)imino]-5,5-diphenylimidazolidin-4-one] | 19 | 23 | 37 | 22 | 25 | 47 | 27 | 30 | 42 | 25 | 33 | 39 | 26 | 30 | 48 | 16 | 19 | 23
